Data from DBAASP.
Converted amounts (≈) assume the structure as drawn.

Tests used:
Experiment in all cases: ≥ marks a high value that may be exact or a test limit, other limits are often not marked, values filed in µg/mL are converted to µM
[1] = system: Listeria monocytogenes ATCC 19115
[2] = system: Staphylococcus aureus CMCC 26003
[3] = system: Klebsiella aerogenes ATCC 13048
[4] = system: Klebsiella pneumoniae ATCC 700603
[5] = system: Lacticaseibacillus casei HZ1
[6] = system: Listeria monocytogenes ATCC 7611
Saccharomyces cerevisiae = system: Saccharomyces cerevisiae
[7] = system: Staphylococcus aureus ATCC 29213
[8] = system: Bacillus subtilis subsp. subtilis CIP 52.65
[9] = system: Enterococcus faecalis ATCC 29212
[10] = system: Enterococcus faecium BM4147
[11] = system: Escherichia coli ATCC 35218
[12] = system: Escherichia coli ATCC 8739
Escherichia coli K-12 = system: Escherichia coli K-12
Escherichia coli ML-35p = system: Escherichia coli ML-35p
[13] = system: Kocuria rhizophila ATCC 9341
[14] = system: Pseudomonas aeruginosa ATCC 27853
[15] = system: Staphylococcus aureus ATCC 6538
[16] = system: Staphylococcus aureus DAR 5829
[17] = system: Staphylococcus aureus ST1065
[18] = system: Staphylococcus epidermidis BM3302
[19] = system: Candida albicans ATCC 10231
Candida krusei CBS 573 = system: Candida krusei CBS 573
[20] = system: Candida parapsilosis CBS 604
[21] = system: Saccharomyces cerevisiae SZMC 0644
[22] = system: Candida albicans KCTC 7270
[23] = system: Escherichia coli CCARM 1229
[24] = system: Escherichia coli CCARM 1238
[25] = system: Pseudomonas aeruginosa 4007
[26] = system: Pseudomonas aeruginosa 4891
[27] = system: Staphylococcus aureus CCARM 3090
[28] = system: Staphylococcus aureus CCARM 3518
[29] = system: Trichosporon beigelii KCTC 7707
[30] = system: Bacillus cereus ATCC 10876
[31] = system: Escherichia coli ATCC 25922
Klebsiella pneumoniae = system: Klebsiella pneumoniae
[32] = system: Salmonella enterica subsp. enterica serovar Typhimurium ATCC 14028
[33] = system: Staphylococcus aureus ATCC 25923
[34] = system: Streptococcus agalactiae ATCC 27956
[35] = system: Streptococcus dysgalactiae subsp. dysgalactiae ATCC 27957
[36] = system: Streptococcus equi subsp. zooepidemicus ATCC 43079
[37] = system: Streptococcus iniae KCTC 3657

**Q.** With `CC[C@H](C)[C@H](NC(=O)[C@H](CCCN=C(N)N)NC(=O)[C@H](CCCN=C(N)N)NC(=O)[C@H](Cc1c[nH]c2ccccc12)NC(=O)[C@@H](N)Cc1ccccc1)C(=O)N[C@@H](CCCN=C(N)N)C(=O)N[C@H](C(=O)N[C@H](C(=O)N1CCC[C@H]1C(=O)N[C@H](C(=O)N[C@H](C(=O)N[C@@H](CC(N)=O)C(=O)N1CCC[C@H]1C(=O)N1CCC[C@H]1C(=O)N[C@@H](Cc1ccccc1)C(=O)N[C@@H](CC(C)C)C(=O)N[C@@H](CCC(N)=O)C(=O)N[C@@H](CCC(N)=O)C(=O)N[C@H](C(N)=O)[C@@H](C)O)C(C)C)C(C)C)[C@@H](C)O)C(C)C` [FWRRIRVTPVVNPPFLQQT] as the compound, how does the MIC [1] read?
**A.** The MIC was no less than 109 µM.

**Q.** And the MIC [2]?
**A.** The MIC was no less than 109 µM.

**Q.** `CC(C)C[C@H](NC(=O)[C@H](Cc1ccccc1)NC(=O)[C@H](CCCCN)NC(=O)[C@H](Cc1ccccc1)NC(=O)[C@H](Cc1ccccc1)NC(=O)[C@H](Cc1cnc[nH]1)NC(=O)[C@@H](NC(=O)[C@H](Cc1c[nH]c2ccccc12)NC(=O)[C@@H](NC(=O)[C@H](CO)NC(=O)[C@@H]1CCCN1C(=O)[C@H](CC(C)C)NC(=O)[C@H](Cc1ccccc1)NC(=O)[C@H](CC(C)C)NC(=O)[C@H](CCCCN)NC(=O)[C@H](CC(C)C)NC(=O)[C@@H]1CCCN1C(=O)[C@H](CC(N)=O)NC(=O)CN)[C@@H](C)O)C(C)C)C(=O)N[C@@H](CCCN=C(N)N)C(=O)O` [GNPLKLFLPSTWVHFFKFLR] was tested. Which MIC [3] did it give?
**A.** Its MIC is no less than 64 µM.

**Q.** And the MIC [4]?
**A.** The MIC was greater than 256 µM.

**Q.** What about the MIC [5] of the same compound?
**A.** The MIC was no less than 32 µM.

**Q.** And the MIC [6]?
**A.** Its MIC is 4 µM (≈ 9.79 µg/mL).

**Q.** And the MIC (Saccharomyces cerevisiae)?
**A.** Its MIC is no less than 256 µM.

**Q.** And the MIC [7]?
**A.** The MIC was 4 µM (≈ 9.79 µg/mL).

**Q.** How did the MIC [8] turn out when `CC[C@H](C)[C@H](NC(=O)CNC(=O)[C@H](Cc1c[nH]c2ccccc12)NC(=O)[C@@H](NC(=O)CN)C(C)C)C(=O)N[C@@H](C)C(=O)N[C@@H](CCCCN)C(=O)N[C@H](C(=O)N[C@@H](C)C(=O)NCC(=O)N[C@@H](CCCCN)C(=O)N[C@H](C(=O)N[C@@H](CC(C)C)C(=O)NCC(=O)N[C@@H](CC(N)=O)C(=O)N[C@H](C(=O)N[C@@H](CC(C)C)C(=O)N1CCC[C@H]1C(=O)N[C@@H](Cc1cnc[nH]1)C(=O)N[C@H](C(=O)N[C@@H](Cc1ccccc1)C(=O)N[C@@H](CO)C(=O)N[C@@H](CO)C(=O)N[C@@H](CC(N)=O)C(=O)N[C@@H](CCC(N)=O)C(=O)N[C@@H](CO)C(N)=O)C(C)C)[C@@H](C)CC)C(C)C)[C@@H](C)CC` [GVWGIAKIAGKVLGNILPHVFSSNQS] was run?
**A.** Its MIC is 6.25 µM (≈ 16.8 µg/mL).

**Q.** What about the MIC [9] of the same compound?
**A.** The MIC was 50 µM (≈ 135 µg/mL).

**Q.** And the MIC [10]?
**A.** Its MIC is 25 µM (≈ 67.3 µg/mL).

**Q.** And the MIC [11]?
**A.** Its MIC is no less than 100 µM.

**Q.** What about the MIC [12] of the same compound?
**A.** Its MIC is 25 µM (≈ 67.3 µg/mL).

**Q.** And the MIC (Escherichia coli K-12)?
**A.** The MIC was no less than 100 µM.

**Q.** And the MIC (Escherichia coli ML-35p)?
**A.** The MIC was no less than 100 µM.

**Q.** And the MIC [13]?
**A.** Its MIC is 3.12 µM (≈ 8.4 µg/mL).

**Q.** What about the MIC [14] of the same compound?
**A.** The MIC was greater than 100 µM.

**Q.** What about the MIC [7] of the same compound?
**A.** The MIC was 3.12 µM (≈ 8.4 µg/mL).

**Q.** What about the MIC [15] of the same compound?
**A.** Its MIC is 6.25 µM (≈ 16.8 µg/mL).

**Q.** And the MIC [16]?
**A.** The MIC was 25 µM (≈ 67.3 µg/mL).

**Q.** And the MIC [17]?
**A.** Its MIC is 12.5 µM (≈ 33.7 µg/mL).

**Q.** What about the MIC [18] of the same compound?
**A.** The MIC was 12.5 µM (≈ 33.7 µg/mL).

**Q.** Which results are given for `CC[C@H](C)[C@H](NC(=O)[C@@H](NC(=O)[C@H](CCCCN)NC(=O)[C@H](CO)NC(=O)[C@H](CCCCN)NC(=O)[C@H](CC(=O)O)NC(=O)[C@H](CO)NC(=O)[C@@H]1CCCN1C(=O)CNC(=O)[C@H](CO)NC(=O)[C@H](Cc1cnc[nH]1)NC(=O)[C@H](Cc1ccc(O)cc1)NC(=O)[C@@H](N)CCCCN)C(C)C)C(=O)N[C@@H](CO)C(=O)O` [KYHSGPSDKSKVIS]?
**A.** MIC [19]: > 65.2 µM; MIC (Candida krusei CBS 573): ≥ 65.2 µM; MIC [20]: ≥ 65.2 µM; MIC [21]: ≥ 65.2 µM

**Q.** Which results are given for `CC[C@H](C)[C@H](NC(=O)[C@H](CC(C)C)NC(=O)[C@H](CCCCN)NC(=O)[C@@H](NC(=O)[C@H](C)NC(=O)[C@H](CCC(=O)O)NC(=O)[C@H](Cc1cnc[nH]1)NC(=O)[C@@H](NC(=O)[C@H](CCCCN)NC(=O)[C@H](CCC(N)=O)NC(=O)[C@H](Cc1ccccc1)NC(=O)[C@@H](NC(=O)[C@H](CCCCN)NC(=O)[C@H](CCCCN)NC(=O)[C@H](CC(C)C)NC(=O)[C@H](C)NC(=O)[C@H](CC(N)=O)NC(=O)[C@@H](N)CC(C)C)C(C)C)[C@@H](C)CC)[C@@H](C)CC)C(N)=O` [LNALKKVFQKIHEAIKLI]?
**A.** MIC [22]: 16 µM (≈ 33.7 µg/mL); MIC [23]: 2 µM (≈ 4.21 µg/mL); MIC [24]: 2 µM (≈ 4.21 µg/mL); MIC [25]: 2 µM (≈ 4.21 µg/mL); MIC [26]: 4 µM (≈ 8.42 µg/mL); MIC [27]: 4 µM (≈ 8.42 µg/mL); MIC [28]: 4 µM (≈ 8.42 µg/mL); MIC [29]: 8 µM (≈ 16.8 µg/mL)

**Q.** For `CC[C@H](C)[C@H](NC(=O)[C@H](CCCCN)NC(=O)[C@H](CCC(N)=O)NC(=O)[C@H](CC(C)C)NC(=O)CNC(=O)[C@H](CCCCN)NC(=O)CNC(=O)[C@H](CC(C)C)NC(=O)[C@H](CCCCN)NC(=O)[C@H](CCCCN)NC(=O)[C@H](CCCN=C(N)N)NC(=O)[C@H](C)NC(=O)[C@H](CCCCN)NC(=O)[C@H](CCCN=C(N)N)NC(=O)[C@H](Cc1ccccc1)NC(=O)[C@H](Cc1ccccc1)NC(=O)[C@H](CCCCN)NC(=O)[C@@H](N)CO)C(=O)N[C@@H](CCCCN)C(=O)N[C@@H](CC(N)=O)C(=O)N[C@H](C(=O)N[C@@H](CC(C)C)C(=O)N[C@@H](CCCN=C(N)N)C(=O)N[C@@H](CCCCN)C(=O)N[C@@H](Cc1ccc(O)cc1)C(=O)O)C(C)C` [SKFFRKARKKLGKGLQKIKNVLRKY], which MIC [30] is on record?
**A.** The MIC was 21.1 µM (≈ 64 µg/mL).

**Q.** And the MIC [9]?
**A.** The MIC was 13.2 µM (≈ 40.1 µg/mL).

**Q.** And the MIC [31]?
**A.** The MIC was 0.264 µM (≈ 0.8 µg/mL).

**Q.** And the MIC (Klebsiella pneumoniae)?
**A.** Its MIC is 1.32 µM (≈ 4 µg/mL).

**Q.** And the MIC [14]?
**A.** Its MIC is 0.329 µM (≈ 1 µg/mL).

**Q.** What about the MIC [32] of the same compound?
**A.** The MIC was 1.65 µM (≈ 5 µg/mL).

**Q.** And the MIC [33]?
**A.** Its MIC is 24.7 µM (≈ 75 µg/mL).

**Q.** And the MIC [15]?
**A.** Its MIC is 13.2 µM (≈ 40.1 µg/mL).

**Q.** And the MIC [34]?
**A.** Its MIC is 13.2 µM (≈ 40.1 µg/mL).

**Q.** And the MIC [35]?
**A.** Its MIC is 4.9 µM (≈ 14.9 µg/mL).

**Q.** And the MIC [36]?
**A.** Its MIC is 4.9 µM (≈ 14.9 µg/mL).

**Q.** And the MIC [37]?
**A.** Its MIC is 21.1 µM (≈ 64 µg/mL).
